PMC8741257, “Identification of novel non-toxic and anti-angiogenic α-fluorinated chalcones as potent colchicine binding site inhibitors” (Journal of Enzyme Inhibition and Medicinal Chemistry, 2022)
Like-named read-outs stand apart in the source and are kept apart here.

Experiments:
[1] = tested on: six human cancer cell lines (MCF-7, MGC-803, HepG2, Hela, A549, U937); assay: Antiproliferative activity, summary over the tested cancer cell lines; type: cell-based; settings: read-out: IC50
Method: (§1) A549, MGC-803, MCF-7, HepG2 and Hela cells were seeded at the appropriate cell line density (3 × 10^3 to 4 × 10^3 cells/well). The cells were then incubated at 37 °C for 24 h in a humidified 5%CO2 in 96-well plates prior to experiments. After a further 72 h of incubation, cell proliferation was quantified with SRB ([…]) to determine the number of surviving cells. The absorbance at 560 nm was measured by microplate. The experiment was repeated three times, and the data were listed in the form of mean and standard deviation.
MGC-803 cells were collected and seeded into 96 well plates at a density of 8000/well. The mediums containing drugs and cell suspension were added into the well. The cells were incubated in 5% CO2 incubator at 37 °C for 72 h. Each well was added 10 µL CCK8 solution, and the incubation time was 3–4 h. The absorbance value at 450 nm was measured by microplate reader. Data are calculated with GraphPad Prism5 software.

[2] = tested on: HUVECs (human umbilical vein endothelial cells); assay: Transwell cell invasion assay; type: cell-based; settings: 2.5, 5 and 10 µM, 24 h
Method: HUVECs (human umbilical vein endothelial cells) grown on Matrigel were commonly used as a tube formation model for studying the physiological and pathological processes of the vascular system in vitro, and a widely studied human endothelial cell type in angiogenesis. The effect of 4c on endothelial cell migration was assessed by using HUVECs. Standardised wounds were made in confluent monolayers of HUVECs and then exposed to compound 4c at 2.5, 5 and 10 µM for 48 h. […] We further evaluated the capacity of 4 s on endothelial cell invasion using a Transwell assay.
Matrix gel was thawed overnight at 4 °C. […] Then the cells were washed three times with PBS and fixed cells by 4% paraformaldehyde for 30 min. Subsequently, 0.2% crystal violet solution was added, stained for 30 min, and the invasion of cells was observed under the microscope. Transwell was placed into a 24-well plate, 35% acetic acid (300 μL) was added to the upper chamber of the chamber, and after acetic acid completely entered the lower chamber, 100 μL of acetic acid from the lower chamber was aspirated into a 96-well plate, and three replicate wells of each concentration were shaken for 10 min, and the absorbance was measured at 560 nm with an enzyme marker.

[3] = tested on: 293 T (human embryonic kidney cell); assay: Growth inhibition of normal human cells; type: cell-based; settings: HEK-293T, triplicate, mean ± SD
Method: (§2) The effect of compound 4c on three types of normal human cell lines including LO2 (human hepatocyte cells), 293 T (human embryonic kidney cell) and THP-1-derived macrophages was then determined.

[4] = tested on: LO2 (human hepatocyte cells); assay: Growth inhibition of normal human cells; type: cell-based; settings: triplicate, mean ± SD
Method: as §2

[5] = tested on: THP-1-derived macrophages; assay: Growth inhibition of normal human cells; type: cell-based; settings: Macrophage, triplicate, mean ± SD
Method: as §2

[6] = tested on: Hela (human cervical cancer cells); assay: Antiproliferative activity (SRB assay); type: cell-based; settings: mean ± SD, three separated experiments, 72 h
Method: (§3) MCF-7, MGC-803, Hela and HepG-2 cell lines were cultured in a base medium (90% DMEM and 10% FBS), A549 and U937 were cultured in a base medium (90% PRMI-1640 and 10% FBS) at 37 °C, 5% CO2 and a saturated humidity atmosphere. All the mediums were supplemented with 10% FBS and 1% […]/streptomycin (all cells were purchased from Shanghai Institutes for Biological Sciences, Chinese Academy of Sciences, Shanghai, China).
as §1

[7] = tested on: MCF-7 (human breast cancer cells); assay: Antiproliferative activity (SRB assay); type: cell-based; settings: MCF7, mean ± SD, three separated experiments, 72 h
Method: as §3, §1

[8] = tested on: HepG2 (human liver cancer cells); assay: Antiproliferative activity (SRB assay); type: cell-based; settings: mean ± SD, three separated experiments, 72 h
Method: as §3, §1

[9] = tested on: A549 (human non-small cell lung cancer); assay: Antiproliferative activity (SRB assay); type: cell-based; settings: mean ± SD, three separated experiments, 72 h
Method: as §3, §1

MGC-803 cells = assay: Cell cycle distribution (PI, flow cytometry); type: cell-based, human
Source text: Most inhibitors of microtubule polymerisation are able to block mitosis in G2/M phase, which ultimately leads to apoptosis by disrupting tubulin-microtubule balance. To elucidate whether the cytotoxicity of 4c was due to cell cycle arrest, flow cytometry analysis and PI marking method were used to evaluate the effects of 4c on the MGC-803 cell cycle distribution. […] A significant difference was also observed when we further evaluated its effects using different time points (Figure 5(C,D)). MGC-803 cells treated with 4c (36 nM) can be arrested in the G2/M phase from 30.37% at 6 h to 45.37% at 24 h.
MGC-803 cells (15 × 10^4 cells/well) were inoculated in 6-well plates and incubated at 37 °C for 24 h, and then treated with 4c (18, 36, 72nΜ). The collected cells were washed with cold PBS and then fixed in 75% ethanol in PBS at −20 °C overnight. The cells were then washed twice with PBS buffer and then stained with 500 μL of […] (PI, 5 mg) staining solution […] for 15 min in the dark. Samples were immediately assayed for DNA content using a flow cytometer (Becton, Dickinson and Company, USA). The percentage of cell cycle phases was analysed by the software provided in the instrument.

IC50 ([1]; against five of the tested cell lines, range): 25 to 202 nM
IC50 ([1]; against six cell lines, range as worded in text): 25 to 254 nM
IC50 [6]: 25 ± 1 nM
IC50 [7]: 254 ± 37 nM
IC50 [8]: > 5000 nM
IC50 [9]: 202 ± 12 nM
SMILES: COc1cc(C(=O)/C(F)=C/c2c[nH]c3cc(Br)ccc23)cc(OC)c1OC [4c, (Z)-3–(6-bromo-1H-indol-3-yl)-2-fluoro-1–(3,4,5-trimethoxyphenyl)prop-2-en-1-one]
number of cells invaded into lower chamber [2]: gradually decreased in a dose-dependent manner
IC50 [3]: 1050 ± 220 nM
IC50 [4]: 680 ± 220 nM
IC50 [5]: 1210 ± 17 nM
percentage of cells in G2/M (MGC-803 cells; 18 nM, control 32.15%): 50.47%
percentage of cells in G2/M (MGC-803 cells; 36 nM, 6 h): 30.37%
percentage of cells in G2/M (MGC-803 cells; 36 nM, control 32.15%): 83.65%
percentage of cells in G2/M (MGC-803 cells; 72 nM, control 32.15%): 90.21%
